Results reported in article PMC10251479, “PROTAC-Induced Glycogen Synthase Kinase 3β Degradation as a Potential Therapeutic Strategy for Alzheimer’s Disease” (ACS Chemical Neuroscience, 2023).

Legend:
[1] = test system: SH-SY5Y cells; assay: Cytotoxicity in SH-SY5Y cells (MTT); assay type: cell-based, human
Procedure: Human neuronal SH-SY5Y cells (Sigma-Aldrich, St. Louis, MO, USA) were routinely grown in Dulbecco’s modified Eagle’s Medium supplemented with 10% fetal bovine serum, 2 mM l-glutamine, 50 U/mL penicillin, and 50 μg/mL streptomycin at 37 °C in a humidified incubator with […]
Determination of cytotoxicity
SH-SY5Y cells were seeded in a 96-well plate at 2 × 10^4 cells/well, incubated for 24 h and then […]
for 24 h at 37°C in 5% CO2. The cell viability, in terms of mitochondrial metabolic function, was evaluated by the reduction of 3-(4,5-dimethyl-2-thiazolyl)-2,5-diphenyl-2H-tetrazolium bromide […]
(MTT) to its insoluble formazan. Briefly, the treatment was replaced with MTT in HBSS [0.5 mg/mL] for 2 h at 37°C in 5% CO2. After washing with HBSS, formazan crystals were dissolved in isopropanol. The amount of formazan was measured (570 nm, reference filter 690 nm) using a multilabel plate reader (VICTOR™ X3, PerkinElmer, Waltham, MA, USA). Data are expressed as mean of three independent experiments. […]

[2] = PAMPA-BBB permeation; assay type: in vitro ADME
Procedure: 11. PAMPA BBB permeation studies.
Prediction of the brain penetration was evaluated using a parallel artificial membrane permeability assay (PAMPA).[12] Ten commercial drugs, PBS at pH 7.4, EtOH, and dodecane were purchased from Sigma- Aldrich, Acros organics, Merck, and Fluka. The porcine polar brain lipid (PBL) was from Avanti Polar Lipids. The donor plate was a 96-well filtrate plate (Multiscreen® IP Sterile Plate PDVF […]
both from Millipore. Filter PDVF membrane units (diameter 30 mm, pore size 0.45 µm) from Symta were used to filter the samples. A 96-well plate UV reader (Biteck Instruments, Synergy H4 Hibrid Reader) was used for the UV measurements.
12 mg of promazine) were dissolved in 1 mL of EtOH. 100 µL of this compound stock solution were taken and 1400 µL of EtOH and 3500 µL of PBS were added to reach 30% of EtOH concentration in the experiment. These solutions were filtered. The acceptor 96-well microplate was filled with 180 µL of PBS/EtOH (70/30). The donor 96-well plate was coated with 4 µL of porcine brain lipid in dodecane (20 mg mL-1) and after 5 min, 180 µL of each compound solution was added. 1 mg of […]
of EtOH and 1.4 mL of PBS, filtered and then added to the donor 96-well plate. Then the donor plate was carefully put on the acceptor plate to form a “sandwich”, which was left undisturbed for 2 h and 45 min at 25 °C. During this time the compounds diffused from the donor plate through the brain lipid membrane into the acceptor plate. After incubation, the donor plate was removed. UV plate reader determined the concentration of compounds and commercial drugs in the acceptor and the donor plates. Every sample was analyzed at three to five wavelengths (between 200 and 500 nm), in 3 wells and in two independent runs. Results are given as the mean and the average of the two runs is reported. Quality control compounds (previously mentioned) of known BBB permeability were included in each experiment to validate the analysis set.

[3] = classified from experimental Pe

**Q.** What does the source list for `O=C(Cn1cc(C2=C(c3ccc(Cl)cc3Cl)C(=O)NC2=O)c2ccccc21)NCCCOCCCCOCCCNc1cccc2c1C(=O)N(C1CCC(=O)NC1=O)C2=O` (centres unmarked) [Compound 1]?
**A.** concentration at which cytotoxicity was shown ([1]; MTT, 24 h treatment, 1.25–40 μM): higher than 20 μM; nontoxic up to (neuronal cells) ([1]; neuronal cells): up to 20 μM; Papp at 2.75 h ([2]; PAMPA, pH 7.4, PBS:EtOH (70:30), 2 h 45 min at 25 °C, porcine brain lipid, mean ± SD of two independent experiments, read-out: Pe (experimental data)): 15.3 ± 1.12 ×10⁻⁶ cm/s; BBB permeability classification [2, 3]: CNS±; Prediction (penetration in the CNS) [2, 3]: CNS +/- (CNS +/- (orange) for 15.78 × 10 −6 cm s−1 > Pe > 11.11 × 10 –6 cm s−1)
